Where a name gives a salt, the structure may show the parent alone. Read-outs that look alike come from different tables or passages of the source.
What was measured:
Assay type in all cases: cell-based
MDA-MB-231 = assay: Anti-proliferation IC50, MDA-MB-231; settings: Homo sapiens
Hep-G2 = assay: Anti-proliferation IC50, Hep-G2; settings: Homo sapiens, HepG2
A549 = assay: Anti-proliferation IC50, A549; settings: Homo sapiens
VERO = assay: Anti-proliferation IC50, VERO; settings: Chlorocebus sabaeus
[1] = Anti-proliferation IC50, MRC-5; settings: human, MRC-5 cells; Table 1, compounds of formula I; NI = no inhibition up to 500 μM
MCF-7 = assay: Anti-proliferation IC50, MCF-7; settings: Homo sapiens, MCF7
MRC-5 = assay: Anti-proliferation IC50, MRC-5; settings: Homo sapiens, MRC5; Table 2, compounds of formula II
[2] = Table 1, compounds of formula I, NI = no inhibition up to 500 μM, read-out: MDA-MB-231 (IC50)
[3] = Table 1, compounds of formula I, NI = no inhibition up to 500 μM, read-out: Hep-G2 (IC50)
[4] = Table 1, compounds of formula I, NI = no inhibition up to 500 μM, read-out: A549 (IC50)
[5] = Table 1, compounds of formula I, NI = no inhibition up to 500 μM, read-out: VERO (IC50)
[6] = Table 1, compounds of formula I, NI = no inhibition up to 500 μM, read-out: MCF-7 (IC50)
[7] = Table 2, compounds of formula II, read-out: Anti-proliferation IC50 MDA-MB-231
[8] = Table 2, compounds of formula II, read-out: Anti-proliferation IC50 Hep-G2
[9] = Table 2, compounds of formula II, read-out: Anti-proliferation IC50 A549
[10] = Table 2, compounds of formula II, read-out: Anti-proliferation IC50 VERO
[11] = Table 2, compounds of formula II, read-out: Anti-proliferation IC50 MCF-7
[12] = Anti-proliferation IC50 for the new compounds, read-out: MDA-MB-231 (IC50 μM)
[13] = Anti-proliferation IC50 for the new compounds, read-out: Hep-G2 (IC50 μM)
[14] = Anti-proliferation IC50 for the new compounds, read-out: VERO (IC50 μM)
[15] = Anti-proliferation IC50 for the new compounds, read-out: MCF-7 (IC50 μM)

Row | IC50 (MDA-MB-231; [2]) | IC50 (Hep-G2; [3]) | IC50 (A549; [4]) | IC50 (MCF-7; [6]) | IC50 (MDA-MB-231; [7]) | IC50 (Hep-G2; [8]) | IC50 (A549; [9]) | IC50 (MCF-7; [11]) | IC50 (MDA-MB-231; [12]) | IC50 (Hep-G2; [13]) | IC50 (MCF-7; [15]) | SMILES | IC50 (VERO; [5]) | IC50 [1] | IC50 (VERO; [10]) | IC50 (MRC-5) | IC50 (VERO; [14])
1 | 58.5 ± 3.2 µM | 49.2 ± 1.8 µM | 56.9 ± 0.8 µM | 53.6 ± 0.2 µM | – | – | – | – | – | – | – | CC[C@H]1OC(=O)[C@@H](C)[C@@H](O[C@H]2C[C@@](C)(OC)[C@@H](O)[C@H](C)O2)[C@@H](C)[C@@H](O[C@H]2O[C@@H](C)C[C@@H](N(C)Cc3ccc(-c4cn(CCCNC(=O)CCCC[C@H]5CCSS5)nn4)cc3)[C@@H]2O)[C@](C)(OC)C[C@@H](C)C(=O)[C@H](C)[C@H](O)[C@]1(C)O | 58.1 ± 2.7 µM | 51.6 ± 5 µM | – | – | –
2 | 65 ± 0.9 µM | > 500 µM | > 500 µM | > 500 µM | – | – | – | – | – | – | – | CC[C@H]1OC(=O)[C@@H](C)[C@@H](O[C@@H]2C[C@](C)(OC)[C@H](O)[C@@H](C)O2)[C@@H](C)[C@@H](O[C@H]2O[C@@H](C)C[C@@H](N(C)C)[C@@H]2OC(=O)CCCC[C@H]2CCSS2)[C@](C)(OC)C[C@@H](C)C(=O)[C@H](C)[C@H](O)[C@]1(C)O | > 500 µM | 44.8 ± 7.1 µM | – | – | –
3 | 140 µM | 133 µM | 278 µM | 128 ± 16.5 µM | – | – | – | – | – | – | – | CC[C@H]1OC(=O)[C@@H](C)[C@@H](O[C@H]2C[C@@](C)(OC)[C@@H](O)[C@H](C)O2)[C@@H](C)[C@@H](O[C@H]2O[C@@H](C)C[C@@H](N(C)C)[C@@H]2OC(=O)/C=C/C(=O)OC)[C@](C)(OC)C[C@@H](C)C(=O)[C@H](C)[C@H](O)[C@]1(C)O | 219 ± 45.8 µM | 88.4 µM | – | – | –
4 | – | – | – | – | 45 ± 1.3 µM | 29.5 ± 4.4 µM | 23 ± 0.5 µM | 38.2 ± 0.8 µM | – | – | – | CC[C@@H]1OC(=O)[C@@H](C)[C@H](O[C@H]2C[C@@](C)(OC)[C@@H](O)[C@H](C)O2)[C@@H](C)[C@H](O[C@@H]2O[C@H](C)C[C@H](N(C)C)[C@H]2OC(=O)CCCC[C@H]2CCSS2)C(C)(O)C[C@H](C)CN(C)[C@@H](C)[C@H](O)[C@@]1(C)O (stereo partly shown) | – | – | 54.5 ± 0.8 µM | 13.4 ± 0.4 µM | –
5 | – | – | – | – | – | – | – | – | 2.1 µM | 2.9 µM | 2.8 µM | CC[C@H]1OC(=O)[C@H](C)[C@@H](O[C@H]2C[C@@](C)(OC)[C@@H](O)[C@H](C)O2)[C@H](C)[C@@H](O[C@@H]2O[C@H](C)C[C@H](N(C)C(=O)CCCCC(CCSCc3ccccc3)SCc3ccccc3)[C@H]2O)[C@](C)(O)C[C@@H](C)CN(C)[C@H](C)[C@@H](O)[C@]1(C)O (stereo partly shown) [AZM-613] | – | – | – | – | 6.5 µM
6 | – | – | – | – | 400 ± 32.4 µM | 225 ± 12.8 µM | 282 ± 14.3 µM | – | – | – | – | CC[C@@H]1OC(=O)[C@@H](C)[C@H](O)[C@@H](C)[C@H](O[C@@H]2O[C@H](C)C[C@H](N(C)C)[C@H]2OC(=O)CCCC[C@H]2CCSS2)C(C)(O)C[C@H](C)CN(C)[C@@H](C)[C@H](O)[C@@]1(C)O (stereo partly shown) | – | – | 273 ± 26.9 µM | 143 ± 17.1 µM | –
7 | – | – | – | – | – | – | – | – | 236 µM | 232 µM | 206 µM | O=C(O)CCCCC(CCSCc1ccccc1)SCc1ccccc1 (stereo not shown) [CIP-613, reference compound] | – | – | – | – | 224 µM
8 | – | – | – | – | 29.6 ± 3 µM | 63.6 ± 7.7 µM | 141 ± 4.3 µM | 50 ± 1.5 µM | – | – | – | CCCCOC(=O)/C=C/C(=O)O[C@@H]1[C@@H](O[C@H]2[C@H](C)[C@@H](O[C@H]3C[C@@](C)(OC)[C@@H](O)[C@H](C)O3)[C@H](C)C(=O)O[C@@H](CC)[C@](C)(O)[C@@H](O)[C@H](C)N(C)C[C@@H](C)CC2(C)O)O[C@@H](C)C[C@H]1N(C)C (stereo partly shown) | – | – | 126 ± 2.4 µM | 43.6 ± 8.5 µM | –

Further lines, the compound ahead of its results:

Row | SMILES | IC50 (MDA-MB-231; [2]) | IC50 (Hep-G2; [3]) | IC50 (A549; [4]) | IC50 (MCF-7; [6]) | IC50 (MDA-MB-231; [7]) | IC50 (Hep-G2; [8]) | IC50 (A549; [9]) | IC50 (MCF-7; [11]) | IC50 (MDA-MB-231; [12]) | IC50 (Hep-G2; [13]) | IC50 (MCF-7; [15]) | IC50 (VERO; [5]) | IC50 [1] | IC50 (VERO; [10]) | IC50 (MRC-5) | IC50 (VERO; [14])
9 | CCCCOC(=O)/C=C/C(=O)N(C)[C@@H]1C[C@H](C)O[C@H](O[C@H]2[C@H](C)[C@@H](O[C@H]3C[C@@](C)(OC)[C@@H](O)[C@H](C)O3)[C@H](C)C(=O)O[C@@H](CC)[C@](C)(O)[C@@H](O)[C@H](C)N(C)C[C@@H](C)CC2(C)O)[C@H]1O (stereo partly shown) | – | – | – | – | 34.8 ± 2.8 µM | 64.9 ± 2.4 µM | 111 ± 4.6 µM | 39.3 ± 7.1 µM | – | – | – | – | – | 97.2 ± 15.5 µM | 78.9 ± 2.6 µM | –
10 | CC[C@@H]1OC(=O)[C@@H](C)[C@H](O[C@H]2C[C@@](C)(OC)[C@@H](O)[C@H](C)O2)[C@@H](C)[C@H](O[C@H]2O[C@@H](C)C[C@@H](N(C)Cc3ccc(-c4cn(CCNC(=O)CCCC[C@H]5CCSS5)nn4)cc3)[C@@H]2O)C(C)(O)C[C@H](C)CN(C)[C@@H](C)[C@H](O)[C@@]1(C)O (stereo partly shown) | – | – | – | – | 11.8 ± 0.1 µM | 8.5 ± 1.1 µM | 10.3 ± 0.9 µM | 11.7 ± 0.4 µM | – | – | – | – | – | 16.9 ± 0.4 µM | 6.1 µM | –
11 | CC[C@@H]1OC(=O)[C@@H](C)[C@H](O[C@H]2C[C@@](C)(OC)[C@@H](O)[C@H](C)O2)[C@@H](C)[C@H](O[C@H]2O[C@@H](C)C[C@@H](N(C)C)[C@@H]2OC(=O)/C=C/C(=O)OC)C(C)(O)C[C@H](C)CN(C)[C@@H](C)[C@H](O)[C@@]1(C)O (stereo partly shown) | – | – | – | – | 118 µM | 118 µM | 284 µM | 278 µM | – | – | – | – | – | 238 ± 29.1 µM | 68.3 µM | –
12 | CC[C@H]1OC(=O)[C@H](C)[C@@H](O[C@H]2C[C@@](C)(OC)[C@@H](O)[C@H](C)O2)[C@H](C)[C@@H](O[C@@H]2O[C@H](C)C[C@H](N(C)C(=O)CCCC[C@H]3CCSS3)[C@H]2O)[C@](C)(O)C[C@@H](C)CN(C)[C@H](C)[C@@H](O)[C@]1(C)O | – | – | – | – | 11.9 ± 1.7 µM | 13.6 ± 0.1 µM | 18.8 ± 4.1 µM | 11.2 µM | – | – | – | – | – | 24.4 ± 2.4 µM | 20.2 ± 3.7 µM | –
13 | O=C(O)CCCCC1CCSS1 (stereo not shown) [Lipoic acid (ALA), Lipoic acid, reference compound] | > 500 µM | > 500 µM | > 500 µM | > 500 µM | – | – | – | – | – | – | – | > 500 µM | > 500 µM | – | – | –
14 | CC[C@H]1OC(=O)[C@@H](C)[C@@H](O[C@H]2C[C@@](C)(OC)[C@@H](O)[C@H](C)O2)[C@@H](C)[C@@H](O[C@H]2O[C@@H](C)C[C@@H](N(C)Cc3ccc(-c4cn(CCNC(=O)CCCC[C@H]5CCSS5)nn4)cc3)[C@@H]2O)[C@](C)(OC)C[C@@H](C)C(=O)[C@H](C)[C@H](O)[C@]1(C)O | 56.9 ± 1.3 µM | 57.3 ± 1.2 µM | 58.6 ± 0.6 µM | 42.3 ± 4.4 µM | – | – | – | – | – | – | – | 65 ± 12.2 µM | 56.1 ± 1.2 µM | – | – | –
15 | CCCCOC(=O)/C=C/C(=O)N(C)[C@@H]1C[C@H](C)O[C@H](O[C@@H]2[C@H](C)[C@H](O[C@H]3C[C@@](C)(OC)[C@@H](O)[C@H](C)O3)[C@H](C)C(=O)O[C@H](CC)[C@@](C)(O)[C@@H](O)[C@@H](C)C(=O)[C@H](C)C[C@@]2(C)OC)[C@H]1O | 28.4 ± 3.9 µM | 209 ± 11.2 µM | > 500 µM | 72.3 ± 5.2 µM | – | – | – | – | – | – | – | 68.3 ± 16.8 µM | 44.9 ± 0.6 µM | – | – | –
16 | CC[C@H]1OC(=O)[C@@H](C)[C@@H](O)[C@@H](C)[C@@H](O[C@H]2O[C@@H](C)C[C@@H](N(C)C)[C@@H]2OC(=O)CCCC[C@H]2CCSS2)[C@](C)(OC)C[C@@H](C)C(=O)[C@H](C)[C@H](O)[C@]1(C)O | 414.4 ± 1.7 µM | 222 ± 5.3 µM | > 500 µM | 477.3 ± 3.4 µM | – | – | – | – | – | – | – | > 500 µM | 262.6 ± 0.4 µM | – | – | –
17 | CC[C@@H]1OC(=O)[C@@H](C)[C@H](OC2C[C@@](C)(OC)[C@@H](O)[C@H](C)O2)[C@@H](C)[C@H](O[C@H]2O[C@@H](C)C[C@@H](N(C)Cc3ccc(-c4cn(CCCNC(=O)CCCC[C@H]5CCSS5)nn4)cc3)[C@@H]2O)C(C)(O)C[C@H](C)CN(C)[C@@H](C)[C@H](O)[C@@]1(C)O (stereo partly shown) | – | – | – | – | 21.3 ± 1.5 µM | 14.4 ± 0.6 µM | 26.9 µM | 26.8 ± 7.1 µM | – | – | – | – | – | 40.3 ± 4.9 µM | 24.5 ± 2.6 µM | –
18 | COC(=O)/C=C/C(=O)OC [Dimethyl Fumarate, reference compound] | > 500 µM | > 500 µM | > 500 µM | > 500 µM | – | – | – | – | – | – | – | 844 µM | 259 µM | – | – | –
